From patent US12162901B2, “N-acetylated sialic acids and related sialosides” (priority 2016, dated 2024)

What was measured:
SpNanC = SpNanC (Streptococcus pneumoniae, UniProt A0A0H2UQE4); assay: Sialidase substrate specificity of Leg glycosides (HPLC/capillary electrophoresis), SpNanC; assay type: biochemical; conditions: 37° C., 16 hs, pH 6.5
[1] = target: C. perfringens sialidase (CpNanH) (Clostridium perfringens, UniProt P10481); assay type: biochemical; conditions: 37° C., 16 hs, pH 5.0
V. cholerae sialidase = target: T1, V. cholerae sialidase (Vibrio cholerae serotype O1, UniProt P0C6E9); assay: Sialidase substrate specificity of Leg glycosides (HPLC/capillary electrophoresis), V. cholerae sialidase; assay type: biochemical; conditions: pH 5.5
T1 construct: purchased Roche

SpNanA = target: T2, SpNanA (Streptococcus pneumoniae, UniProt P62575); assay: Sialidase substrate specificity of Leg glycosides (HPLC/capillary electrophoresis), SpNanA; assay type: biochemical; conditions: 37° C., 16 hs, pH 6.0
T2 construct: made in house

[2] = target: T3, wild-type PmST1 (α2-3-sialidase activity) (Pasteurella multocida, UniProt Q15KI8); assay: Sialidase substrate specificity of Leg glycosides (HPLC/capillary electrophoresis), PmST1; assay type: biochemical; conditions: 37° C., 16 hs, CMP (0.4 mM), pH 5.5
T3 construct: made in house

BiNanH2 = target: T4, BiNanH2 (Bifidobacterium longum, UniProt A0ACD7UU12); assay: Sialidase substrate specificity of Leg glycosides (HPLC/capillary electrophoresis), BiNanH2; assay type: biochemical, Bifidobacterium infantis; conditions: 37° C., 16 hs, pH 5.0
T4 sequence (A0ACD7UU12 1-394): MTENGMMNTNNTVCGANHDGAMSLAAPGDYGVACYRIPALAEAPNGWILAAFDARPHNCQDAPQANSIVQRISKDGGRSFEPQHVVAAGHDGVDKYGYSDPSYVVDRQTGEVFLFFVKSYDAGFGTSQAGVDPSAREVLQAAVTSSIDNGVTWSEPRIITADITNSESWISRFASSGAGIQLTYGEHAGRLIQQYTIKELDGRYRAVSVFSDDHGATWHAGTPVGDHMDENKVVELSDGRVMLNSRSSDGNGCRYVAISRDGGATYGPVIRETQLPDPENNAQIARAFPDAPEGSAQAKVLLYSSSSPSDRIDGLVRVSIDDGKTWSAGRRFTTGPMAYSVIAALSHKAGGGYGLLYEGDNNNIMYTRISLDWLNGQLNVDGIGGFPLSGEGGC

[3] = target: T5, human cytosolic sialidase hNEU2 (Homo sapiens, UniProt Q9Y3R4); assay: Sialidase substrate specificity of Leg glycosides (HPLC/capillary electrophoresis), hNEU2; assay type: biochemical; conditions: 37° C., 16 hs, pH 5.0
T5 construct: made in house
T5 sequence (Q9Y3R4 whole entry): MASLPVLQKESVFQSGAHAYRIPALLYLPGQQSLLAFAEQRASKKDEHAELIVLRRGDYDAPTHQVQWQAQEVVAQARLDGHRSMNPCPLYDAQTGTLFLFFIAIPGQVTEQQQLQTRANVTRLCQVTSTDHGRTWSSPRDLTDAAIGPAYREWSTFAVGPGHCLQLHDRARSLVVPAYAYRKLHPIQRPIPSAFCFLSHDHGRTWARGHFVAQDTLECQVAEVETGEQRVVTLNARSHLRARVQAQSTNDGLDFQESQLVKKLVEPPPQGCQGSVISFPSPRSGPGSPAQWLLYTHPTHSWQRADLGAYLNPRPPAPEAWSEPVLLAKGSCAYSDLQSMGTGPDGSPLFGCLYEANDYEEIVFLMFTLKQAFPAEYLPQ

SpNanB = target: T6, SpNanB (Streptococcus pneumoniae serotype 4, UniProt Q54727, E68D/K536E/K577E/N393D/S59P); assay: Sialidase substrate specificity of Leg glycosides (HPLC/capillary electrophoresis), SpNanB; assay type: biochemical; conditions: 37° C., 16 hs, pH 6.0
T6 construct: made in house

A. ureafaciens sialidase = assay: Sialidase substrate specificity of Leg glycosides (HPLC/capillary electrophoresis), A. ureafaciens sialidase; assay type: biochemical, Arthrobacter ureafaciens; conditions: pH 5.5
[4] = target: T7, PmST1 (α2-3-sialidase activity) (Pasteurella multocida, UniProt Q15KI8); assay: Kinetic studies for PmST1 α2-3-sialidase activity (HPLC); assay type: biochemical; conditions: 0.4 mM CMP
T7 construct: made in house
Method: Kinetic studies for PmST1 were performed in duplicates at 37° C. for 10 min. […] The reactions were stopped by adding 20 μL of pre-chilled ethanol. The mixtures were then centrifuged and the supernatants were analyzed by the HPLC system described above for sialidase substrate specificity studies assays. Apparent kinetic parameters were obtained by varying substrate concentrations from 0.1-40 mM (0.1, 0.2, 0.4, 1, 2, 4, 10, 20, and 40 mM) and fitting the data (the average values of duplicate assay results) into the Michaelis-Menten equation using Grafit 5.0.

influenza C virus = conditions: background statement; cited from earlier work
BJA-B K20 cells [5] = assay: Feeding of free sialic acids to BJA-B K20 cells, PToV probes, flow cytometry; assay type: cell-based, human; conditions: 1 mM free sialic acid, three days of feeding
human CD22-Fc/Siglec-2 = assay: Feeding of free sialic acids to BJA-B K20 cells, probing with human CD22-Fc, flow cytometry; assay type: cell-based; conditions: 3 mM, 3 days of feeding
Method: Cell Culture and Sugar Supplementation.
Flow Cytometry. Cells were washed with PBS and incubated with 10 μg/mL of PToV probes in PBS with 1% BSA and 10 mM EDTA for 30 minutes on ice. Subsequently, cells were washed with PBS and incubated with PE goat anti-human IgG antibody for 30 minutes on ice. After an additional washing step, the cells were analyzed by FACSCalibur (BD).
After 3 days of feeding, BJA-B K20 cells were probed with human CD22-Fc/Siglec-2 to detect ligands (FIG. 7). […] However, when the cells were grown in the presence of Neu5Ac9NAc, the expression of the CD22 ligand was minimal (FIG. 7C). […] This supports previous observations that human CD22-Fc recognizes α2-6-linked sialosides with Neu5Ac or N-glycolylneuraminic acid (Neu5Gc) as the preferred naturally existing sialic acid form and 9-O-acetyl modification on sialic acid blocks the binding.

BJA-B K20 cells [6] = assay: Feeding of free sialic acids to BJA-B K20 cells, DMB derivatization and HPLC of membrane sialic acids; conditions: 1 mM for 3 days; sialic acids released with Vibrio cholerae neuraminidase

SMILES: C[C@@H](O)[C@@H](N=[N+]=[N-])C1O[C@@](OC2C(O)[C@H](Oc3ccc([N+](=O)[O-])cc3)OC(CO)[C@@H]2O)(C(=O)O)CC(O)[C@H]1N=[N+]=[N-] (stereo partly drawn) [3-13, Leg5,7diN3α2-3GalβpNP]
- activity of SpNanC for the compound (SpNanC): did not show activity
- activity of C. perfringens sialidase (CpNanH) for the compound [1]: did not show activity
- activity of V. cholerae sialidase for the compound (V. cholerae sialidase): did not show activity
- activity of SpNanA for the compound (SpNanA): did not show activity
- substrate for the α2-3-sialidase activity of wild-type PmST1 [2]: not
- activity of BiNanH2 for the compound (BiNanH2): did not show activity
- activity of hNEU2 for the compound [3]: did not show activity
- activity of SpNanB for the compound (SpNanB): did not show activity
- activity of A. ureafaciens sialidase for the compound (A. ureafaciens sialidase): did not show activity

SMILES: CC(=O)N[C@@H]1C(O)C[C@](OC2C(O)[C@H](Oc3ccc([N+](=O)[O-])cc3)OC(CO)[C@@H]2O)(C(=O)O)OC1[C@H](NC(C)=O)[C@@H](C)O (stereo partly drawn) [3-19, Leg5,7Ac2α2-3GalβpNP]
- activity of SpNanC for the compound (SpNanC): did not show activity
- activity of C. perfringens sialidase (CpNanH) for the compound [1]: did not show activity
- activity of V. cholerae sialidase for the compound (V. cholerae sialidase): did not show activity
- activity of SpNanA for the compound (SpNanA): did not show activity
- activity of BiNanH2 for the compound (BiNanH2): did not show activity
- activity of hNEU2 for the compound [3]: did not show activity
- activity of SpNanB for the compound (SpNanB): did not show activity
- α2-3-sialidase activity of PmST1, fold less efficient than for Neu5Acα2-3GalβpNP [4]: about 30 fold
- activity of A. ureafaciens sialidase for the compound (A. ureafaciens sialidase): did not show activity

SMILES: CC(=O)NC[C@@H](O)[C@@H](O)[C@@H]1OC(O)(C(=O)O)C[C@H](O)[C@H]1NC(C)=O (stereo partly drawn) [Neu5Ac9NAc, 5,9-Diacetamido-3,5,9-Trideoxy-D-glycero-D-galacto-2-nonulopyranosylonic Acid]
- binding to influenza C virus and fate under hemagglutinin-esterase (influenza C virus): mimic Neu5,9Ac2 in binding to influenza C virus without being destroyed by esterase activity
- cell surface incorporation detected with PToV probe (BJA-B K20 cells [5]): detected on the cell surface
- expression of CD22 ligand on fed cells (human CD22-Fc/Siglec-2): minimal
- incorporation on the cell membrane (DMB-HPLC) (BJA-B K20 cells [6]): showed incorporation
